{
  "source": "patent US20250212873A1",
  "about": "“VOLATILE HDAC INHIBITORS FOR THERAPEUTIC AND PLANT APPLICATIONS” (The Regents of the University of California, priority 2022, published 2025)",
  "key": {"[1]": {"tested_on": "SK-MEL-5 Cancer cell line", "assay": "Cancer cell viability assay, SK-MEL-5", "assay_type": "cell-based", "conditions": "triplicates", "description": "Cells were maintained in a 37° C. incubator with 5% CO2 throughout the experiment. Compound stocks were dissolved in 10% DMSO, but final concentrations were made fresh in complete media as needed. 10% DMSO solvent was used as control in complete media. Cells were seeded onto 12-well plates and allowed 12-24 hours until treatment began to allow cells to adhere to wells. This was followed by minimum 5-day treatment of compounds, changing the media with treatment every 48 hours. Cell lines A549, PC3, and SK-MEL-5 were seeded at 8000 cells/well which would provide 80-100% confluency after 6-day growth. SH-SY5Y was seeded at 8000 cells/well then 16,000 cells/well due to slower growth and given at least 10 days for sufficient growth. After allotted growth times, cell counts were performed via Countess™ automated cell counter. All assays were completed with a minimum of triplicate replicates for all conditions and analyzed through GraphPad Prism One-way ANOVA for significance."}, "[2]": {"tested_on": "A. thaliana plants (Col-0)", "assay": "Flowering assay", "assay_type": "in vivo, Arabidopsis thaliana", "conditions": "vapors from 0.1% solution", "from_the_text": "Dramatic effects of VOCs have been seen in the seedling stage. The effects on with flowering timing were observed, since the process involves numerous changes in gene expression and therefore potentially susceptible to HDAC inhibitory volatiles. Mutants in HDACs like HDA5 show delayed flowering due to upregulation of flowering repressor genes like FLC and MAF1 (M. Luo et al., Plant J 82, 925-936 (2015)). Conversely, mutants in HDA9lead to early flowering due to increased expression of FLOWERING LOCUS T (FT) and AGAMOUS-LIKE 19 (AGL19) (M. J. Kang, et al., New Phytol 206, 281-294 (2015)). We placed 3 weeks old A. thaliana plants in the glass chambers and exposed them to the vapors of two of the VOCs, diacetyl and α-angelica lactone volatilizing from 0.1% solutions in the glass chamber.\nTwenty-seven day old A. thaliana plants (Col-0), that had been transplanted at day 7 to soil, were placed in 10-gallon glass aquarium as chamber along with a petridish containing 2 ml of chemical dissolved in PO or PO alone were placed at the other side of the container. Plants were exposed to odors until all plants began to flower, with odor cartridges being replaced daily. Signs of flower buds opening were counted as plant flowering. One-way analysis of Variance (ANOVA) between groups was performed for plant exposure quantitative data using Graph Pad Prism 9."}, "[3]": {"tested_on": "Arabidopsis thaliana leaflets", "assay": "RNA-seq of leaflets of Arabidopsis exposed to diacetyl", "assay_type": "in vivo", "description": "A. thaliana plants (Col-0) that had been transplanted at day 7 to soil were placed in the experimental room for 2 days to acclimate (23°° C. with a 12-hour light/dark cycle). A single potted plant was placed in a 4-liter clear glass jar, with openings attached to a vacuum to allow for air exchange. A small beaker containing 1 ml of 1% diacetyl in PO or PO alone were placed inside the jar. Plants were watered at 2.5 days. After 5 days, individual leaflets were dissected, and flash frozen in liquid nitrogen. Trizol-based RNA isolation was carried out as above. Two biological replicates were performed for each condition, with an average of 68,355,820 reads/replicate, with an average of 95% mapped. Multiplexed libraries were made from total RNA input using the Illumina TruSeq RNA sample preparation kit (v2) and 50 bps single-end sequencing was done using the NextSeq500.\nThe HDACs are also important for gene expression in the shoots as well. Young plants in pots were exposed to vapors of diacetyl from a solution of the same concentration as before and performed an RNASeq analyses. 321 genes were differentially regulated in the leaflet of Arabidopsis thaliana following exposure to volatile diacetyl for 5 days (FDR<0.05). These DEGs are distributed across multiple chromosome locations and represent genes of diverse molecular functions (FIG. 27C). […]"}, "mouse brain": {"tested_on": "mouse brain", "assay": "Brain RNA-seq of mice exposed to diacetyl vapors", "assay_type": "in vivo", "conditions": "5 days", "from_the_text": "HDAC inhibitors are an important class of drugs being tested for a number of different conditions including neurodegenerative diseases and brain cancers. A major design challenge for such drugs is the ability to cross the blood-brain barrier. An interesting possibility that arises due to the volatility and small size of odorants is that they could diffuse through the intranasal route to the brain directly. To test whether cells in the brain respond to diacetyl vapors by altering gene expression RNA-seq experiments were carried out on mice exposed only to aroma of diacetyl for 5 days. Littermate controls were exposed in a similar manner to the solvent (PO) headspace.\nThe DEGs from the diacetyl-exposed mouse brain transcriptome for several of these key genes were evaluated."}, "[4]": {"conditions": "0.1% headspace, |log2 fold-change|>1, FDR<0.05"}, "[5]": {"conditions": "1% headspace, |log2 fold-change|>1, FDR<0.01"}},
  "data": [
    {"smiles": "CC(=O)C(C)=O", "note": "[2,3-butanedione]", "values": [
      {"measurement": "changes in proliferation, SK-MEL-5", "setting": "[1]; 33 uM", "result": "No significant changes in proliferations"},
      {"measurement": "changes in proliferation, SK-MEL-5", "setting": "[1]; 100 uM", "result": "No significant changes in proliferations"},
      {"measurement": "delay in flowering", "setting": "[2]", "result": 11, "unit": "days"},
      {"measurement": "gene expression in leaflets (RNA-seq)", "setting": "[3]; volatile exposure", "result": "significant changes in gene expression"},
      {"measurement": "genes differentially regulated in the leaflet", "setting": "[3]; volatile exposure 5 days, 1% in PO, FDR<0.05", "result": 321, "unit": "genes"},
      {"measurement": "down regulated genes in mouse brain", "setting": "mouse brain; [4]", "result": 32, "unit": "genes"},
      {"measurement": "up-regulated genes in mouse brain", "setting": "mouse brain; [4]", "result": 49, "unit": "genes"},
      {"measurement": "down regulated genes in mouse brain", "setting": "mouse brain; [5]", "result": 1031, "unit": "genes"},
      {"measurement": "up-regulated genes in mouse brain", "setting": "mouse brain; [5]", "result": 748, "unit": "genes"},
      {"measurement": "Alk expression in mouse brain", "setting": "mouse brain; exposed mice of FIG. 22B (1%)", "result": "significantly downregulated"},
      {"measurement": "ERCC6L2 expression in mouse brain", "setting": "mouse brain; exposed mice of FIG. 22B (1%)", "result": "significantly downregulated"},
      {"measurement": "MycN expression in mouse brain", "setting": "mouse brain; exposed mice of FIG. 22B (1%)", "result": "significantly downregulated"},
      {"measurement": "NCAN expression in mouse brain", "setting": "mouse brain; exposed mice of FIG. 22B (1%)", "result": "significantly downregulated"},
      {"measurement": "STK33 expression in mouse brain", "setting": "mouse brain; exposed mice of FIG. 22B (1%)", "result": "significantly downregulated"},
      {"measurement": "gene expression in the mouse brain (RNA-seq), in words", "setting": "mouse brain; inhaled vapors, 0.1% or 1% solution headspace", "result": "changes in expression of a number of genes, in a dose dependent manner"}
    ]}
  ]
}
